Measured values from patent publication US20260373132A1, “PERK INHIBITORHC-5404 IN COMBINATION WITH ANTI-PD-1 ANTIBODY AND/OR AN ANTIANGIOGENETIC AGENT FOR USE IN THE TREATMENT OF CANCER” (HIBERCELL, INC., priority 2022, published 2026).

Columns and labels:
Assay type in all cases: in vivo, mouse
A498 RCC xenograft = A498 RCC xenograft tumor growth
Description: Xenograft RCC models were generated as follows: Female NOD.SCID mice (6-8 weeks of age) were injected with A498 RCC cells (5×10^6 cells/mouse), female Balb/c Nude mice (6-8 weeks old) were implanted with 786-O RCC cells (5×10^6 cells/mouse) or Caki-1 RCC cells (6×10^6 cells/mouse), female Athymic Nude-Foxn1nu mice (7-8 weeks of age) were implanted with MFE280 endometrial cells (10×10^6 cells/mouse). Cells were implanted into the flank of animals.
Once tumor tumors reached volume of typically 150-250 mm^3, animals were randomized by tumor volume into the treatment groups of 8 or 10 animals per group. In the single animal trial with RCC PDX models, only one animal per group was enrolled.
Body weight and tumor volume were measured twice weekly. Tumor volume was calculated using the formula [tumor volume (mm^3)=π/6×length×width^2] and plotted as means+SEM. The percentage of tumor growth inhibition was calculated at the end of the study using the formula: […], if ΔT>0, ΔT, mean tumor volume of the drug-treated group on the observation day of the study—mean tumor volume of the drug-treated group on initial day of dosing; ΔC, mean tumor volume of the control group on the observation day of the study—mean tumor volume of the control group on initial day of dosing. Regression was calculated using the formula=100×ΔT/Tinitial, if ΔT<0. Animals with >50% regressions were partial responders. Animals with tumor volume of 0 (no measurable tumor) were considered as complete responders, and animals with <50% tumor regression and 30% growth over the baseline were considered as stable disease. Animals with tumors>30% increase over the baseline were considered progressive disease. The % change in body weight was calculated by the formula (body weight on observation day−body weight on initial day)/body weight on initial day×100%.

RXF-2540 = test: RCC PDX single animal trial, RXF-2540; settings: HC-5404 30 mg/kg PO BID, n=1
From the text: (§1) This example investigated the effect of HC-5404 in combination with VEGFR-TKIs in inhibiting tumor growth using 12 RCC PDX tumor models, following procedures analogous to those described above.
(§2) Single animal per group (n=1) trial of animals harboring diverse RCC PDX models were used in this study.

RXF-2667 = test: RCC PDX single animal trial, RXF-2667; settings: HC-5404 30 mg/kg PO BID, n=1
From the text: as §1, §2

Compound: Cc1cc(NC(=O)[C@H](O)c2cc(F)cc(F)c2)ccc1-c1cnc(N)c(C(=O)NC(C)C)c1 [HC-5404, (R)-2-amino-5-(4-(2-(3,5-difluorophenyl)-2-hydroxyacetamido)-2-methylphenyl)-N-isopropylnicotinamide]
- TGI (A498 RCC xenograft; 10 and 30 mg/kg PO BID tested, 28 days (FIG. 36)): ~41%
- TGI (A498 RCC xenograft; single agent: HC-5404 30 mg/kg PO BID or sunitinib 20 mg/kg PO QD (FIG. 31)): ~ 40%
- antitumor efficacy as monotherapy (RXF-2540): exhibited antitumor efficacy
- antitumor efficacy as monotherapy (RXF-2667): exhibited antitumor efficacy
